Read-outs that look alike come from different tables or passages of the source.
Key:
[1] = Plasma pharmacokinetics of Compound 1 in patients with advanced solid tumor malignancies and TGCT; format: in vivo, human; settings: for Tmax / Cmax / AUC(0-t): human, plasma, oral; for Tmax: Median (Min, Max)
Procedure: PK analysis was conducted on all 38 patients. Serial blood samples were collected for PK and took place on either Day −7, Cycle 1, Day 1 (C1D1) and C2D1 at pre-dose, 0.5, 1, 2, 4, 6, 8, 10-12, and 24 hr time points or Day −7, C1D1, C1D8, and C2D1 at pre-dose, 1, 2, 4, 6, and 8 hr time points, or C1D1, C1D8, and C2D1 at pre-dose, 1, 2, 4, 6, and 8 hr time points. High fat meal was given prior to dosing of Compound 1 on Day −7. PD effects were measured by two methodologies: 1) depletion of CSF1R-expressing monocytes in peripheral blood (Cohorts 1-7) from C1D1, C1D15 and C2D1; and 2) increase of plasma levels of CSF1 and IL-34, the ligands for CSF1R (Cohorts 1-7) on C1D1, C1D15, and C2D1. For the CD16^+ monocyte assay, whole blood collected in an EDTA vacutainer was aliquoted into tubes and incubated with fluorescently-labeled antibodies (CD14-Alexa488 (BD Pharmingen); CD16-PE-Cy7 (BD Pharmingen); and TIE2-APC (R&D Systems). After incubation, red blood cells were lysed, and the remaining cells were washed several times before being analyzed on a flow cytometer. For the plasma CSF1 assay or IL-34, whole blood collected in an EDTA vacutainer was centrifuged, and the plasma was collected and frozen. Plasma levels of CSF1 or IL-34 were measured using a commercial ELISA kit (R&D Systems).
Cohort 1 had daily dosing.

[2] = rat, in vivo
[3] = dog, in vivo
in vivo = settings: Sprague-Dawley, rat

Cc1nc(-c2cnc(NC(C)C)n(C)c2=O)ccc1Oc1ccnc(-c2cnn(C)c2)c1 [Compound 1, 2-(isopropylamino)-3-methyl-5-(6-methyl-5-((2-(1-methyl-1H-pyrazol-4-yl)pyridin-4-yl)oxy)pyridin-2-yl)pyrimidin-4(3H)-one]
Tmax ([1]; 20 mg, Cohort 3 20 mg Weekly after 5-day QD loading dose, Day-7): 4 h | Cmax ([1]; 20 mg, Cohort 4 20 mg QD x 5 d, BIW maintenance dose, C1D1, Geo Mean): 268 ng/mL | AUC(0-t) ([1]; 20 mg, Cohort 4 20 mg QD x 5 d, BIW maintenance dose, C1D1, Geo Mean, read-out: AUC0-8 h): 1610 ng·h/mL | Cmax ([1]; 20 mg, Cohort 4 20 mg QD x 5 d, BIW maintenance dose, C1D8, Geo Mean): 685 ng/mL | AUC(0-t) ([1]; 20 mg, Cohort 4 20 mg QD x 5 d, BIW maintenance dose, C1D8, Geo Mean, read-out: AUC0-8 h): 4660 ng·h/mL | Cmax ([1]; 20 mg, Cohort 4 20 mg QD x 5 d, BIW maintenance dose, C2D1, Geo Mean): 642 ng/mL | AUC(0-t) ([1]; 20 mg, Cohort 4 20 mg QD x 5 d, BIW maintenance dose, C2D1, Geo Mean, read-out: AUC0-8 h): 4300 ng·h/mL | Cmax ([1]; 20 mg, Cohort 4 20 mg QD x 5 d, BIW maintenance dose, Day -7, Geo Mean): 183 ng/mL | AUC(0-t) ([1]; 20 mg, Cohort 4 20 mg QD x 5 d, BIW maintenance dose, Day -7, Geo Mean, read-out: AUC0-8 h): 1090 ng·h/mL | Cmax ([1]; 20 mg, Cohort 4 20 mg Twice Weekly after 5-day QD loading dose, C1D1, GM (CV %)): 268 ng/mL | AUC(0-t) ([1]; 20 mg, Cohort 4 20 mg Twice Weekly after 5-day QD loading dose, C1D1, GM (CV %), read-out: AUC0-8): 1610 ng·h/mL | Tmax ([1]; 20 mg, Cohort 4 20 mg Twice Weekly after 5-day QD loading dose, C1D1): 0.75 h | Cmax ([1]; 20 mg, Cohort 4 20 mg Twice Weekly after 5-day QD loading dose, C1D8, GM (CV %)): 685 ng/mL | AUC(0-t) ([1]; 20 mg, Cohort 4 20 mg Twice Weekly after 5-day QD loading dose, C1D8, GM (CV %), read-out: AUC0-8): 4660 ng·h/mL | Tmax ([1]; 20 mg, Cohort 4 20 mg Twice Weekly after 5-day QD loading dose, C1D8): 2.25 h | Cmax ([1]; 20 mg, Cohort 4 20 mg Twice Weekly after 5-day QD loading dose, C2D1, GM (CV %)): 642 ng/mL | AUC(0-t) ([1]; 20 mg, Cohort 4 20 mg Twice Weekly after 5-day QD loading dose, C2D1, GM (CV %), read-out: AUC0-8): 4300 ng·h/mL | Tmax ([1]; 20 mg, Cohort 4 20 mg Twice Weekly after 5-day QD loading dose, C2D1): 0.5 h | Cmax ([1]; 20 mg, Cohort 4 20 mg Twice Weekly after 5-day QD loading dose, Day-7, GM (CV %)): 183 ng/mL | AUC(0-t) ([1]; 20 mg, Cohort 4 20 mg Twice Weekly after 5-day QD loading dose, Day-7, GM (CV %), read-out: AUC0-8): 1090 ng·h/mL | Tmax ([1]; 20 mg, Cohort 4 20 mg Twice Weekly after 5-day QD loading dose, Day-7): 4 h | AUC(0-t) ([1]; 20 mg, Cohort 7 20 mg QD after 3-day 50 mg QD loading dose, C2D1, GM (CV %), read-out: AUC0-8): 7980 ng·h/mL | Cmax ([1]; 30 mg, Cohort 5 30 mg QD x 5 d, BIW maintenance dose, C1D1, Geo Mean): 600 ng/mL | AUC(0-t) ([1]; 30 mg, Cohort 5 30 mg QD x 5 d, BIW maintenance dose, C1D1, Geo Mean, read-out: AUC0-8 h): 3390 ng·h/mL | Cmax ([1]; 30 mg, Cohort 5 30 mg QD x 5 d, BIW maintenance dose, C1D8, Geo Mean): 1400 ng/mL | AUC(0-t) ([1]; 30 mg, Cohort 5 30 mg QD x 5 d, BIW maintenance dose, C1D8, Geo Mean, read-out: AUC0-8 h): 8800 ng·h/mL | Cmax ([1]; 30 mg, Cohort 5 30 mg QD x 5 d, BIW maintenance dose, C2D1, Geo Mean): 953 ng/mL | AUC(0-t) ([1]; 30 mg, Cohort 5 30 mg QD x 5 d, BIW maintenance dose, C2D1, Geo Mean, read-out: AUC0-8 h): 5420 ng·h/mL | Cmax ([1]; 30 mg, Cohort 5 30 mg QD x 5 d, BIW maintenance dose, Day -7, Geo Mean): 278 ng/mL | AUC(0-t) ([1]; 30 mg, Cohort 5 30 mg QD x 5 d, BIW maintenance dose, Day -7, Geo Mean, read-out: AUC0-8 h): 1390 ng·h/mL | Cmax ([1]; 30 mg, Cohort 5 30 mg Twice Weekly after 5-day QD loading dose, C1D1, GM (CV %)): 422 ng/mL | AUC(0-t) ([1]; 30 mg, Cohort 5 30 mg Twice Weekly after 5-day QD loading dose, C1D1, GM (CV %), read-out: AUC0-8): 2250 ng·h/mL | Tmax ([1]; 30 mg, Cohort 5 30 mg Twice Weekly after 5-day QD loading dose, C1D1): 1 h | Cmax ([1]; 30 mg, Cohort 5 30 mg Twice Weekly after 5-day QD loading dose, C1D8, GM (CV %)): 1160 ng/mL | AUC(0-t) ([1]; 30 mg, Cohort 5 30 mg Twice Weekly after 5-day QD loading dose, C1D8, GM (CV %), read-out: AUC0-8): 7160 ng·h/mL | Tmax ([1]; 30 mg, Cohort 5 30 mg Twice Weekly after 5-day QD loading dose, C1D8): 1 h | Cmax ([1]; 30 mg, Cohort 5 30 mg Twice Weekly after 5-day QD loading dose, C2D1, GM (CV %)): 822 ng/mL | AUC(0-t) ([1]; 30 mg, Cohort 5 30 mg Twice Weekly after 5-day QD loading dose, C2D1, GM (CV %), read-out: AUC0-8): 5420 ng·h/mL | Tmax ([1]; 30 mg, Cohort 5 30 mg Twice Weekly after 5-day QD loading dose, C2D1): 1.5 h | Cmax ([1]; 30 mg, Cohort 5 30 mg Twice Weekly after 5-day QD loading dose, Day-7, GM (CV %)): 278 ng/mL | AUC(0-t) ([1]; 30 mg, Cohort 5 30 mg Twice Weekly after 5-day QD loading dose, Day-7, GM (CV %), read-out: AUC0-8): 1390 ng·h/mL | Cmax ([1]; 30 mg, Cohort 6 30 mg QD x 5 d, BIW maintenance dose (so in the source), C2D1, Geo Mean): 1150 ng/mL | AUC(0-t) ([1]; 30 mg, Cohort 6 30 mg QD x 5 d, BIW maintenance dose (so in the source), C2D1, Geo Mean, read-out: AUC0-8 h): 7290 ng·h/mL | Cmax ([1]; 40 mg, Cohort 6 40 mg Twice Weekly after 5-day QD loading dose, C1D1, GM (CV %)): 830 ng/mL | AUC(0-t) ([1]; 40 mg, Cohort 6 40 mg Twice Weekly after 5-day QD loading dose, C1D1, GM (CV %), read-out: AUC0-8): 4790 ng·h/mL | Cmax ([1]; 40 mg, Cohort 6 40 mg Twice Weekly after 5-day QD loading dose, C1D8, GM (CV %)): 1860 ng/mL | AUC(0-t) ([1]; 40 mg, Cohort 6 40 mg Twice Weekly after 5-day QD loading dose, C1D8, GM (CV %), read-out: AUC0-8): 12000 ng·h/mL | Tmax ([1]; 40 mg, Cohort 6 40 mg Twice Weekly after 5-day QD loading dose, C1D8): 1 h | Cmax ([1]; 40 mg, Cohort 6 40 mg Twice Weekly after 5-day QD loading dose, C2D1, GM (CV %)): 1150 ng/mL | AUC(0-t) ([1]; 40 mg, Cohort 6 40 mg Twice Weekly after 5-day QD loading dose, C2D1, GM (CV %), read-out: AUC0-8): 7290 ng·h/mL | Tmax ([1]; 40 mg, Cohort 6 40 mg Twice Weekly after 5-day QD loading dose, C2D1): 1 h | Cmax ([1]; 40 mg, Cohort 6 40 mg Twice Weekly after 5-day QD loading dose, Day-7, GM (CV %)): 454 ng/mL | AUC(0-t) ([1]; 40 mg, Cohort 6 40 mg Twice Weekly after 5-day QD loading dose, Day-7, GM (CV %), read-out: AUC0-8): 2250 ng·h/mL | Tmax ([1]; 40 mg, Cohort 6 40 mg Twice Weekly after 5-day QD loading dose, Day-7): 4 h | Cmax ([1]; 50 mg, Cohort 7 50 mg QD x 3 d, QD maintenance dose, C2D1, Geo Mean): 1250 ng/mL | AUC(0-t) ([1]; 50 mg, Cohort 7 50 mg QD x 3 d, QD maintenance dose, C2D1, Geo Mean, read-out: AUC0-8 h): 7980 ng·h/mL | Cmax ([1]; Cohort 7 20 mg QD after 3-day 50 mg QD loading dose, C1D1, GM (CV %)): 440 ng/mL | AUC(0-t) ([1]; Cohort 7 20 mg QD after 3-day 50 mg QD loading dose, C1D1, GM (CV %), read-out: AUC0-8): 2310 ng·h/mL | Cmax ([1]; Cohort 7 20 mg QD after 3-day 50 mg QD loading dose, C1D8, GM (CV %)): 1010 ng/mL | AUC(0-t) ([1]; Cohort 7 20 mg QD after 3-day 50 mg QD loading dose, C1D8, GM (CV %), read-out: AUC0-8): 6740 ng·h/mL | Cmax ([1]; Cohort 7 20 mg QD after 3-day 50 mg QD loading dose, C2D1, GM (CV %)): 840 ng/mL | Cmax ([1]; Cohort 7 20 mg QD after 3-day 50 mg QD loading dose, Day-7, GM (CV %)): 272 ng/mL | AUC(0-t) ([1]; Cohort 7 20 mg QD after 3-day 50 mg QD loading dose, Day-7, GM (CV %), read-out: AUC0-8): 800 ng·h/mL | Tmax ([1]; Cohort 7 20 mg QD after 3-day 50 mg QD loading dose, Day-7): 5 h | half-life ([1]; patients, dose cohorts 1 to 7, no accurate estimation): long half-life | STD10 ([2]; Sprague-Dawley, 13 weeks): 7.5 mg/kg/day | increases in AST, ALT, GLDH and ALP activities [2]: minimal or mild | HNSTD (Highest Non-Serious Toxic Dose) ([3]; beagle, 4 weeks): 7.5 mg/kg/day | safety margin at NOAEL/HNSTD relative to clinical exposure (AUC) [3]: about 2.1 × | NOAEL at 4 weeks (in vivo): 5 mg/kg/day

— patent US11679110B2, “Methods of treating disorders using CSF1R inhibitors” (Deciphera Pharmaceuticals, LLC, priority 2018, dated 2023)
